Data as given in patent US20230054318A1, “PERSONALIZED TUMOR VACCINE AND USE THEREOF FOR CANCER IMMUNOTHERAPY” (priority 2019, published 2023).

Assay: Human Equivalent Dose (HED) calculation based on body surface area
Settings: for Animal NOAEL: mouse (~20 g)
Source text: Provided herein are methods for calculating HED of the MBTA components based on body surface area.
See details from: Nair A B, Jacob S. A simple practice guide for dose conversion between animals and human. J Basic Clin Pharma 2016; 7:27-31
A formula to calculate HED is shown as follows:
HED(mg/kg)=Animal dose(mg/kg)Animal Km/Human Km

Compound `CCOCc1nc2c(N)nc3ccccc3c2n1CC(C)(C)O` [R-848, Resiquimod, reference compound] has an NOAEL (mouse) of 1.2 mg/kg.
With “Lipoteichoic acid [LTA, reference compound]” the “Animal NOAEL” value was 1.2 mg/kg.
For Mannan, the “HED/Safety Factor (10)” value was 0.3851 mg/kg, the “Maximum Recommended Starting Dose (MRSD, assuming 60 kg adult)” value was 23.11 mg/day and the HED (Mouse Km=3, Human Km=37) was 3.851 mg/kg. For the same compound, the “Animal NOAEL” value was 47.5 mg/kg.
